The values that follow come from ChEMBL document CHEMBL4680364, “Substituted Chromen-4-one Derivatives for Treating Hepatitis B Virus Infection” (ACS Med Chem Lett, 2021).

This assay relates to Hepatitis B virus. As to the kind of experiment: Antiviral activity against HBV in human HepDE19 cells producing HBV cccDNA assessed as reduction in cccDNA production by measuring HBeAg level incubated for 24 hrs by ELISA. Format: functional, organism-based. The following applies: HepDE19, 24 h.
For the compound `Cc1ccc(-c2cc(=O)c3cccc(Cl)c3o2)cc1O[C@H]1C[C@@H](C(=O)O)C1`, the IC50 was 490 nM.
For the compound `O=C(O)CCOc1cc(-c2cc(=O)c3cccc(Cl)c3o2)c(F)cc1Br`, the IC50 was determined as 133 nM.
Take `COc1cc(OC)c(-c2cc(=O)c3cccc(Cl)c3o2)cc1OCCOC1CC(C(=O)O)C1` (stereo unspecified): the IC50 is 190 nM.
The figure for `CCOc1cc(Br)c(OCCC(=O)O)cc1-c1cc(=O)c2cccc(Cl)c2o1` is 110 nM.
The same measure for `O=C(O)COc1cc(-c2cc(=O)c3cccc(Cl)c3o2)ccc1C(F)(F)F`: 320 nM; for `COc1c(-c2cc(=O)c3cccc(Cl)c3o2)ccc(Br)c1OC1CC(C(=O)O)C1` (stereo unspecified): 190 nM.
